Measured values: ChEMBL document CHEMBL1157281, “Antineoplastic agents. 400. Synthesis of the Indian Ocean marine sponge cyclic heptapeptide phakellistatin 2” (1999)
Converted amounts (≈) assume the structure as drawn. Residues, ends and D or L forms follow the SMILES beside them.

System: P388
Assay: Growth inhibition of mouse P388 cells
Format: functional
Details: read-out: ED50 (the source's name)

EC50 [µg/mL] | SMILES
24 | CC[C@H](C)[C@@H]1NC(=O)[C@@H]2CCCN2C(=O)[C@H](Cc2ccccc2)NC(=O)[C@@H]2CCCN2C(=O)[C@H](Cc2ccc(O)cc2)NC(=O)[C@@H]2CCCN2C(=O)[C@H]([C@@H](C)CC)NC1=O.Cl [PHAKELLISTATIN 2 (SYNTHETIC)] (cyclo(FPIIPYP))
0.34 (≈ 0.411 µM) | CC[C@H](C)[C@@H]1NC(=O)[C@@H]2CCCN2C(=O)[C@H](Cc2ccccc2)NC(=O)[C@@H]2CCCN2C(=O)[C@H](Cc2ccc(O)cc2)NC(=O)[C@@H]2CCCN2C(=O)[C@H]([C@@H](C)CC)NC1=O [PHAKELLISTATIN 2] (cyclo(FPIIPYP))
